The source of these data is patent US20230113037A1 (Bayer Aktiengesellschaft, priority 2019, published 2023).

The target of test [1] is T1, AHR (Mus musculus, UniProt P30561).
T1 sequence (P30561 1-848 P471L/N533S/M589L): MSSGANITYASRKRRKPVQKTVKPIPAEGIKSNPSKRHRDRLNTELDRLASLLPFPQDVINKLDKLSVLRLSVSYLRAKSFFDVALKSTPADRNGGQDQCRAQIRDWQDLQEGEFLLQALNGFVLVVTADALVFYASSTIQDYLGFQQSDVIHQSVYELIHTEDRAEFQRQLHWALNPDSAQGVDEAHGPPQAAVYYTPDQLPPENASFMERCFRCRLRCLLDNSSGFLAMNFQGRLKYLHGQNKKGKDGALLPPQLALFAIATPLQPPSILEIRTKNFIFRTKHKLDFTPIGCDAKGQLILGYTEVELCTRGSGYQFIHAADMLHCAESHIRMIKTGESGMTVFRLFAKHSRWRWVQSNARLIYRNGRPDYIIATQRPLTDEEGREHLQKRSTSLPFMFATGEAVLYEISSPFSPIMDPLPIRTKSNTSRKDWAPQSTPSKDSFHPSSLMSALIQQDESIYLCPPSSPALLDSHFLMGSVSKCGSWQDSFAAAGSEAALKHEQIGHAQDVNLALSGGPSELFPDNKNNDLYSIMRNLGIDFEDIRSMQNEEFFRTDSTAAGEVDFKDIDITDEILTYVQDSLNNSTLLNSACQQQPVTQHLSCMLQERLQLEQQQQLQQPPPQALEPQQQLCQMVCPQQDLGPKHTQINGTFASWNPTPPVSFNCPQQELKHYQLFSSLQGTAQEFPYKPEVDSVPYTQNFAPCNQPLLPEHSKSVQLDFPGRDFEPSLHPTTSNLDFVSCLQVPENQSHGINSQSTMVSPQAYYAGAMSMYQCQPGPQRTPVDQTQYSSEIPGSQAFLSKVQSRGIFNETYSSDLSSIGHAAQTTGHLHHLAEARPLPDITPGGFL
Put plainly: In vitro assay 3: antagonism in mouse cell line (AHR transactivation, firefly luciferase reporter, kynurenic acid prestimulated). In kind it is cell-based. The conditions noted are these: 200 μM kynurenic acid, 20 hours, read-out: AHR Antagonism Mouse IC50. Put shortly:
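Mouse cells stably carrying a DRE-driven AHR-inducible firefly luciferase reporter were prestimulated with the endogenous agonist kynurenic acid before compound addition. Luciferase read by SteadyGlo; cells without kynurenic acid served as full-inhibition control, with normalization to positive and negative controls. Repeat tests reported as mean or median.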
(A reporter such as luciferase makes a cellular process visible.)

Test [2] concerns the target T2, AHR (Homo sapiens, UniProt P35869).
T2 construct: U87 MG glioblastoma cells (ATCC #HTB-14) endogenously expressing AHR; endogenous in cells; host or cells: U87 MG glioblastoma cells (ATCC #HTB-14)
T2 sequence (P35869 11-848): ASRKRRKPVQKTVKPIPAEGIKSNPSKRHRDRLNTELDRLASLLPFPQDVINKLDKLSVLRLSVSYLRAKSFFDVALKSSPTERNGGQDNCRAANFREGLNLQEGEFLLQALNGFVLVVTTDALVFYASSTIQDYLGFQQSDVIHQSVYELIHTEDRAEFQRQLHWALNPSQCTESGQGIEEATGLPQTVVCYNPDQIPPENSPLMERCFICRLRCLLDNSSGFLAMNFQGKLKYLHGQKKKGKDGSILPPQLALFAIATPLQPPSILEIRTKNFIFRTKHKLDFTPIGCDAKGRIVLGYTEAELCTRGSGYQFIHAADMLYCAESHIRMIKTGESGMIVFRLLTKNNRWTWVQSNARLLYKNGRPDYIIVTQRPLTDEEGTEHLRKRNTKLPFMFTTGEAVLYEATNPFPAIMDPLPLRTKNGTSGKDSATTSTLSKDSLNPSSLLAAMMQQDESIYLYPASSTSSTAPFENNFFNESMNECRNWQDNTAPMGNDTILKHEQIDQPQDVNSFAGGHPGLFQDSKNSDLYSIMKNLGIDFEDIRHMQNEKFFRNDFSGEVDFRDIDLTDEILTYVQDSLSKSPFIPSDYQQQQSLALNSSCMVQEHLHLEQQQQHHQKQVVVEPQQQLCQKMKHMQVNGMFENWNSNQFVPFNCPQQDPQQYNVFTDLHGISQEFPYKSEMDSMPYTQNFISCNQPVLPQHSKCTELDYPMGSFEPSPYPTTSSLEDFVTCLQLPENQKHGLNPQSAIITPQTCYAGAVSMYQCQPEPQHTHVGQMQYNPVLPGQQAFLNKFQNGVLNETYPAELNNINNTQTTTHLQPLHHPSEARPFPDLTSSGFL
Put plainly: In vitro assay 1: antagonism in human cell line (AHR transactivation, firefly luciferase reporter, kynurenic acid prestimulated). Type of test: cell-based. The conditions noted are these: AHR Antagonism Human IC50 [M]. The method, then:
Examples were tested in selected biological assays one or more times. When tested more than once, data are reported as either average values or as median values, wherein • the average value, also referred to as the arithmetic mean value, represents the sum of the values obtained divided by the number of times tested, and • the median value represents the middle number of the group of values when ranked in ascending or descending order. If the number of values in the data set is odd, the median is the middle value. If the number of values in the data set is even, the median is the arithmetic mean of the two middle values.
Transactivation assays were carried out in U87 MG glioblastoma cells (ATCC #HTB-14) endogenously expressing AHR. In addition the cells were stably transfected with an AHR inducible firefly luciferase reporter gene construct that carried AHR-binding sites (DRE) in its promoter and a renilla reporter gene construct with constitutively active promoter. Kynurenic acid is an endogenous AHR activating ligand and was used to prestimulate test cells prior to testing the antagonistic properties of compounds.
As positive inhibition control cells supplemented with 150 μM kynurenic acid were incubated in presence of 5 μM Staurosporin. Normalization was done by positive and negative controls.
Firefly luciferase and Renilla activity was determined by the DualGlo Luciferase Assay System (Promega, #2920). Renilla activity was used to assess toxic effects of compounds.

Where [3] appears, read: Hepa 1c1c7 cells, firefly luciferase reporter.

Read-outs that look alike come from different tables or passages of the source.

Broadly, the IC50 is the concentration that inhibits the measured activity by half.

On to `COc1ccc(-c2nc3c4cccc(S(C)(=N)=O)c4nc(N[C@@H]4CCCCNC4=O)n3n2)cc1` (single isomer, unassigned) [Example 854], for which the IC50 in test [1] (setting [3]) stood at 147 nM; in test [2] (firefly luciferase reporter) it was 7.05e-09 M.
`COc1ccc(-c2nc3c4ccccc4nc(N[C@H](C)C(=O)N4CCN(C(=O)OC(C)(C)C)CC4)n3n2)cc1` [Example 882, tert-butyl 4-{N-[2-(4-methoxyphenyl)[1,2,4]triazolo[1,5-c]quinazolin-5-yl]-D-alanyl}piperazine-1-carboxylate]: the values for the IC50 in test [1] (setting [3]) and in test [2] (firefly luciferase reporter) were 5.13 nM and 5.91e-09 M, respectively.
As for `CN(C)c1cccc(-c2nc3c4ccccc4nc(N[C@@H]4CNCCNC4=O)n3n2)c1` [Example 408, (6R)-6-({2-[3-(dimethylamino)phenyl][1,2,4]triazolo[1,5-c]quinazolin-5-yl}amino)-1,4-diazepan-5-one], the 50% inhibitory concentration (IC50) was 13.6 nM in test [1] (mouse Hepa 1c1c7 cells) and 1.85e-07 M in test [2].
As to `C[C@@H](Nc1nc2c(C(F)(F)F)cccc2c2nc(-c3cnn(C)c3)nn12)C(=O)N1CCC(N(C)C)C1` (mixture of isomers) [Example 876, (2R)-1-[(3R/S)-3-(dimethylamino)pyrrolidin-1-yl]-2-{[2-(1-methyl-1H-pyrazol-4-yl)-7-(trifluoromethyl)[1,2,4]triazolo[1,5-c]quinazolin-5-yl]amino}propan-1-one], the IC50 amounted to 110 nM in test [1] (setting [3]) and 5.39e-08 M in test [2] (firefly luciferase reporter).
With `CS(=O)(=O)c1ccc(-c2nc3c4ccccc4nc(N[C@@H]4CCCCNC4=O)n3n2)cc1` [Example 372, (3R)-3-({2-[4-(methanesulfonyl)phenyl][1,2,4]triazolo[1,5-c]quinazolin-5-yl}amino)azepan-2-one], the IC50 is 1.73 nM in test [1] (mouse Hepa 1c1c7 cells) and 8.65e-09 M in test [2].
For `CCC[C@@H](Nc1nc2ccccc2c2nc(-c3ccccc3OC(F)F)nn12)C(=O)NC` [Example 477, N^2-{2-[2-(difluoromethoxy)phenyl][1,2,4]triazolo[1,5-c]quinazolin-5-yl}-N-methyl-D-norvalinamide], in that order: 1.44 nM and 1.81e-08 M.
Taken in the same sequence, the figures for `CCNC(=O)[C@@H](C)Nc1nc2ccccc2c2nc(-c3cccc(OC)c3)nn12` [Example 107, N-ethyl-N^2-[2-(3-methoxyphenyl)[1,2,4]triazolo[1,5-c]quinazolin-5-yl]-D-alaninamide] were 9.86 nM and 1.06e-08 M.
For `COc1ccc(-c2nc3c4ccccc4nc(N[C@H](C)C(=O)N4CCN(C)CC4)n3n2)cc1` [Example 777, (2R)-2-{[2-(4-methoxyphenyl)[1,2,4]triazolo[1,5-c]quinazolin-5-yl]amino}-1-(4-methylpiperazin-1-yl)propan-1-one], the figures for the IC50 in test [1] (mouse Hepa 1c1c7 cells) and in test [2] were 2.21 nM and 1.8e-09 M, respectively.
Taken in the same sequence, the figures for `CCCCNC(=O)[C@H](C)Nc1nc2c(Br)cccc2c2nc(-c3ccc(Cl)cc3OC(F)(F)F)nn12` [Example 687, N^2-{7-bromo-2-[4-chloro-2-(trifluoromethoxy)phenyl][1,2,4]triazolo[1,5-c]quinazolin-5-yl}-N-butyl-L-alaninamide] were 97.8 nM and above 2e-06 M.
For `C[C@@H](Nc1nc2ccccc2c2nc(-c3cc(Cl)ccc3OC(F)(F)F)nn12)C(=O)NCCN(C)C` [Example 775, N^2-{2-[5-chloro-2-(trifluoromethoxy)phenyl][1,2,4]triazolo[1,5-c]quinazolin-5-yl}-N-[2-(dimethylamino)ethyl]-D-alaninamide], in that order: 743 nM and 3.13e-06 M.
Turning to `CC(C)n1cc(-c2nc3c4cccc(C(F)(F)F)c4nc(N[C@H]4CNCCNC4=O)n3n2)cn1` [Example 960, (6S)-6-({2-[1-(propan-2-yl)-1H-pyrazol-4-yl]-7-(trifluoromethyl)[1,2,4]triazolo[1,5-c]quinazolin-5-yl}amino)-1,4-diazepan-5-one], the IC50 in test [1] (setting [3]) stood at 93 nM; in test [2] (firefly luciferase reporter) it was 4.02e-08 M.
Regarding `COc1ccc(-c2nc3c4ccccc4nc(N[C@@H]4CCCCNC4=O)n3n2)cc1OC` [Example 624, (3R)-3-{[2-(3,4-dimethoxyphenyl)[1,2,4]triazolo[1,5-c]quinazolin-5-yl]amino}azepan-2-one], the values for the IC50 in test [1] (mouse Hepa 1c1c7 cells) and in test [2] were 1.24 nM and 3.49e-09 M, respectively.
For `O=C1NCCCC[C@H]1Nc1nc2ccccc2c2nc(-c3cncc(C(F)(F)F)c3)nn12` [Example 362, (3R)-3-({2-[5-(trifluoromethyl)pyridin-3-yl][1,2,4]triazolo[1,5-c]quinazolin-5-yl}amino)azepan-2-one], in that order: 3.54 nM and 1.91e-08 M.
Turning to `COc1ccc(-c2nc3c4cccc(C)c4nc(N[C@@H]4CCCCNC4=O)n3n2)cc1` [Example 143], the figures for the IC50 in test [1] (mouse Hepa 1c1c7 cells) and in test [2] were 0.884 nM and 2.42e-10 M, respectively.
As for `Cc1cc(-c2nc3c4ccccc4nc(N[C@@H]4CCCCNC4=O)n3n2)ccc1F` [Example 626, (3R)-3-{[2-(4-fluoro-3-methylphenyl)[1,2,4]triazolo[1,5-c]quinazolin-5-yl]amino}azepan-2-one], 9.2e-10 M corresponded to half-maximal inhibition in test [2] (IC50).
The same measure, in the same setting: the value for `Cn1cc(-c2nc3c4ccc(Br)cc4nc(N[C@@H]4CCCCNC4=O)n3n2)cn1` [Example 230, (3R)-3-{[8-bromo-2-(1-methyl-1H-pyrazol-4-yl)[1,2,4]triazolo[1,5-c]quinazolin-5-yl]amino}azepan-2-one] was 1.97e-06 M.
Same read-out and setting: as for `CN1CC[C@@H](Nc2nc3ccccc3c3nc(-c4ccccc4OC(F)(F)F)nn23)C1=O` [Example 460, (3R)-1-methyl-3-({2-[2-(trifluoromethoxy)phenyl][1,2,4]triazolo[1,5-c]quinazolin-5-yl}amino)pyrrolidin-2-one], the figure is 7.67e-08 M.
With `Cn1cc(-c2nc3c4cccc(C(C)(C)O)c4nc(N[C@@H]4CCCCNC4=O)n3n2)cn1` [Example 861, (3R)-3-{[7-(2-hydroxypropan-2-yl)-2-(1-methyl-1H-pyrazol-4-yl)[1,2,4]triazolo[1,5-c]quinazolin-5-yl]amino}azepan-2-one], in test [2] (firefly luciferase reporter), the IC50 worked out at 1.34e-07 M.
In test [2], `O=C1NCCCC[C@H]1Nc1nc2cccc(Br)c2c2nc(-c3cccc(F)c3)nn12` [Example 163, (3R)-3-{[10-bromo-2-(3-fluorophenyl)[1,2,4]triazolo[1,5-c]quinazolin-5-yl]amino}azepan-2-one] gave an IC50 of 2.14e-08 M.
